ChEMBL document CHEMBL4477225, “Development of a cell viability assay to assess drug metabolite structure-toxicity relationships” (Bioorg Med Chem Lett, 2016)

Key:
Type in all cases: ADME, cell-based
Details in all cases: recombinant enzyme
Cytochrome P450 2D6 [1] = molecular target: T1, Cytochrome P450 2D6 (Homo sapiens, UniProt P10635); assay: Drug activation in human Hep3B cells assessed as human CYP2D6-mediated drug metabolism-induced cytotoxicity measured as decrease in cell viability at 27.8 uM pre-incubated with BSO for 18 hrs followed by incubation with compound for 3 hrs in presence of NADPH measured after 24 hrs in absence of compound, CYP3A4 and NADPH by cell titer-glo luminescence assay relative to BSO alone
Cytochrome P450 2C9 [2] = molecular target: T2, Cytochrome P450 2C9 (Homo sapiens, UniProt P11712); assay: Drug activation in human Hep3B cells assessed as human CYP2C9-mediated drug metabolism-induced cytotoxicity measured as decrease in cell viability at 136.1 uM pre-incubated with BSO for 18 hrs followed by incubation with compound for 3 hrs in presence of NADPH measured after 24 hrs in absence of compound, CYP3A4 and NADPH by cell titer-glo luminescence assay relative to BSO alone
Cytochrome P450 3A4 [3] = molecular target: T3, Cytochrome P450 3A4 (Homo sapiens, UniProt P08684); assay: Drug activation in human Hep3B cells assessed as human CYP3A4-mediated drug metabolism-induced cytotoxicity measured as decrease in cell viability at 20.4 uM pre-incubated with BSO for 18 hrs followed by incubation with compound for 3 hrs in presence of NADPH measured after 24 hrs in absence of compound, CYP3A4 and NADPH by cell titer-glo luminescence assay relative to BSO alone
Cytochrome P450 2C9 [4] = molecular target: T2, Cytochrome P450 2C9; assay: Drug activation in human Hep3B cells assessed as human CYP2C9-mediated drug metabolism-induced cytotoxicity measured as decrease in cell viability at 9.7 uM pre-incubated with BSO for 18 hrs followed by incubation with compound for 3 hrs in presence of NADPH measured after 24 hrs in absence of compound, CYP3A4 and NADPH by cell titer-glo luminescence assay relative to BSO alone
Cytochrome P450 2D6 [5] = molecular target: T1, Cytochrome P450 2D6; assay: Drug activation in human Hep3B cells assessed as human CYP2D6-mediated drug metabolism-induced cytotoxicity measured as decrease in cell viability at 12.2 uM pre-incubated with BSO for 18 hrs followed by incubation with compound for 3 hrs in presence of NADPH measured after 24 hrs in absence of compound, CYP3A4 and NADPH by cell titer-glo luminescence assay relative to BSO alone
Cytochrome P450 3A4 [6] = molecular target: T3, Cytochrome P450 3A4; assay: Drug activation in human Hep3B cells assessed as human CYP3A4-mediated drug metabolism-induced cytotoxicity measured as decrease in cell viability at 7.6 uM pre-incubated with BSO for 18 hrs followed by incubation with compound for 3 hrs in presence of NADPH measured after 24 hrs in absence of compound, CYP3A4 and NADPH by cell titer-glo luminescence assay relative to BSO alone
Cytochrome P450 2D6 [7] = molecular target: T1, Cytochrome P450 2D6; assay: Drug activation in human Hep3B cells assessed as human CYP2D6-mediated drug metabolism-induced cytotoxicity measured as decrease in cell viability at 15.2 uM pre-incubated with BSO for 18 hrs followed by incubation with compound for 3 hrs in presence of NADPH measured after 24 hrs in absence of compound, CYP3A4 and NADPH by cell titer-glo luminescence assay relative to BSO alone
Cytochrome P450 3A4 [8] = molecular target: T3, Cytochrome P450 3A4; assay: Drug activation in human Hep3B cells assessed as human CYP3A4-mediated drug metabolism-induced cytotoxicity measured as decrease in cell viability at 8.5 uM pre-incubated with BSO for 18 hrs followed by incubation with compound for 3 hrs in presence of NADPH measured after 24 hrs in absence of compound, CYP3A4 and NADPH by cell titer-glo luminescence assay relative to BSO alone
Cytochrome P450 2C9 [9] = molecular target: T2, Cytochrome P450 2C9; assay: Drug activation in human Hep3B cells assessed as human CYP2C9-mediated drug metabolism-induced cytotoxicity measured as decrease in cell viability at 40.5 uM pre-incubated with BSO for 18 hrs followed by incubation with compound for 3 hrs in presence of NADPH measured after 24 hrs in absence of compound, CYP3A4 and NADPH by cell titer-glo luminescence assay relative to BSO alone
Cytochrome P450 2C9 [10] = molecular target: T2, Cytochrome P450 2C9; assay: Drug activation in human Hep3B cells assessed as human CYP2C9-mediated drug metabolism-induced cytotoxicity measured as decrease in cell viability at 34.1 uM pre-incubated with BSO for 18 hrs followed by incubation with compound for 3 hrs in presence of NADPH measured after 24 hrs in absence of compound, CYP3A4 and NADPH by cell titer-glo luminescence assay relative to BSO alone
Cytochrome P450 3A4 [11] = molecular target: T3, Cytochrome P450 3A4; assay: Drug activation in human Hep3B cells assessed as human CYP3A4-mediated drug metabolism-induced cytotoxicity measured as decrease in cell viability at 25.2 uM pre-incubated with BSO for 18 hrs followed by incubation with compound for 3 hrs in presence of NADPH measured after 24 hrs in absence of compound, CYP3A4 and NADPH by cell titer-glo luminescence assay relative to BSO alone
Cytochrome P450 2D6 [12] = molecular target: T1, Cytochrome P450 2D6; assay: Drug activation in human Hep3B cells assessed as human CYP2D6-mediated drug metabolism-induced cytotoxicity measured as decrease in cell viability at 33.9 uM pre-incubated with BSO for 18 hrs followed by incubation with compound for 3 hrs in presence of NADPH measured after 24 hrs in absence of compound, CYP3A4 and NADPH by cell titer-glo luminescence assay relative to BSO alone
Cytochrome P450 2D6 [13] = molecular target: T1, Cytochrome P450 2D6; assay: Drug activation in human Hep3B cells assessed as human CYP2D6-mediated drug metabolism-induced cytotoxicity measured as decrease in cell viability at 129.2 uM pre-incubated with BSO for 18 hrs followed by incubation with compound for 3 hrs in presence of NADPH measured after 24 hrs in absence of compound, CYP3A4 and NADPH by cell titer-glo luminescence assay relative to BSO alone
Cytochrome P450 3A4 [14] = molecular target: T3, Cytochrome P450 3A4; assay: Drug activation in human Hep3B cells assessed as human CYP3A4-mediated drug metabolism-induced cytotoxicity measured as decrease in cell viability at 80.2 uM pre-incubated with BSO for 18 hrs followed by incubation with compound for 3 hrs in presence of NADPH measured after 24 hrs in absence of compound, CYP3A4 and NADPH by cell titer-glo luminescence assay relative to BSO alone
Cytochrome P450 2C9 [15] = molecular target: T2, Cytochrome P450 2C9; assay: Drug activation in human Hep3B cells assessed as human CYP2C9-mediated drug metabolism-induced cytotoxicity measured as decrease in cell viability at 210.8 uM pre-incubated with BSO for 18 hrs followed by incubation with compound for 3 hrs in presence of NADPH measured after 24 hrs in absence of compound, CYP3A4 and NADPH by cell titer-glo luminescence assay relative to BSO alone

T3 sequence (P08684 whole entry): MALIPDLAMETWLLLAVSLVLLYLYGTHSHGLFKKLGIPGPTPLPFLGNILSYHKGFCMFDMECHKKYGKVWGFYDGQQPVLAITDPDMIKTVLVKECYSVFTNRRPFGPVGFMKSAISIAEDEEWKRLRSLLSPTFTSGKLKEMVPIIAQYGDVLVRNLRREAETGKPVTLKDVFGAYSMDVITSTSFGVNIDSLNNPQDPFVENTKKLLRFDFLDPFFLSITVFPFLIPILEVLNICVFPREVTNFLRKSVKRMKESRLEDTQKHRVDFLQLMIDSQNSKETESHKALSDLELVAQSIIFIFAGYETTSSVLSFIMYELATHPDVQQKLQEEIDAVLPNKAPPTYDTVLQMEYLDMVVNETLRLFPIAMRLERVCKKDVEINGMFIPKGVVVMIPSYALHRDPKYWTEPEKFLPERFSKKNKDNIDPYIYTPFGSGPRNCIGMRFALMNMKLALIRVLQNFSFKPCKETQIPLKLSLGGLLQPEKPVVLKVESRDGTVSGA
T2 sequence (P11712 whole entry): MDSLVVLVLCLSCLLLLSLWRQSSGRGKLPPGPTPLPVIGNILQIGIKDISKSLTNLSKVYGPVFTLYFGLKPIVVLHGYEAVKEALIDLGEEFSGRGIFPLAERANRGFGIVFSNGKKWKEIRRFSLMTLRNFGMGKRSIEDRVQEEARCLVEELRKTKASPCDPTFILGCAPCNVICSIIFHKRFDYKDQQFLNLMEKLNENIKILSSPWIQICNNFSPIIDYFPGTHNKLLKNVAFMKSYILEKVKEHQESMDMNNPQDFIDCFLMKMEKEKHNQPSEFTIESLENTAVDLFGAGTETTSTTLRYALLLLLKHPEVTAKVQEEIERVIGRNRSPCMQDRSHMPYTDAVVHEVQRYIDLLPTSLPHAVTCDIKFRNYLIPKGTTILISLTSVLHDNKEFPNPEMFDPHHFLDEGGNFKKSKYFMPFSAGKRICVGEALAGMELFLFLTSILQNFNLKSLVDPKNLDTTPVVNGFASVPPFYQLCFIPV
T1 sequence (P10635 whole entry): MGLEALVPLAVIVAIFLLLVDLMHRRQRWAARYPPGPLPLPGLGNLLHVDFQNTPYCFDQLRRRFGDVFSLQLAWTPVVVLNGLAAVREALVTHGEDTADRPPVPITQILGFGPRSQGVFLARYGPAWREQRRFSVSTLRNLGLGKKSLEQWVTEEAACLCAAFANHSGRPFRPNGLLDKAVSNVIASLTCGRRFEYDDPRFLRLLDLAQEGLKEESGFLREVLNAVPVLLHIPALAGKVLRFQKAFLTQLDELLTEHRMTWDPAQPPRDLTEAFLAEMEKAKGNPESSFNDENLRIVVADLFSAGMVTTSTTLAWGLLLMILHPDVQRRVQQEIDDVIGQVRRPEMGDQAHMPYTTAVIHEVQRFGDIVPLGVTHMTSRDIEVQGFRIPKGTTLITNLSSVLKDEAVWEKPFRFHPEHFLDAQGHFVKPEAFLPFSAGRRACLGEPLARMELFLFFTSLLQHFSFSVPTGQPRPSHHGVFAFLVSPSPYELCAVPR

SMILES: CCc1nn(CCCN2CCN(c3cccc(Cl)c3)CC2)c(=O)n1CCOc1ccccc1 [NEFAZODONE]
- fold change (FC) (Cytochrome P450 2D6 [1]): 3
- fold change (FC) (Cytochrome P450 2C9 [2]): 0.6
- fold change (FC) (Cytochrome P450 3A4 [3]): 4.1

SMILES: C1CCC(C(CC2CCCCN2)C2CCCCC2)CC1 (stereo not given) [PERHEXILINE]
- fold change (FC) (Cytochrome P450 2C9 [4]): 0.5
- fold change (FC) (Cytochrome P450 2D6 [5]): 0.4
- fold change (FC) (Cytochrome P450 3A4 [6]): 0.7

SMILES: Cc1c(C)c2c(c(C)c1O)CCC(C)(COc1ccc(CC3SC(=O)NC3=O)cc1)O2 (stereo not given) [TROGLITAZONE]
- fold change (FC) (Cytochrome P450 2D6 [7]): 3.1
- fold change (FC) (Cytochrome P450 3A4 [8]): 5.5
- fold change (FC) (Cytochrome P450 2C9 [9]): 1.2

SMILES: COc1cc(C(=O)NS(=O)(=O)c2ccccc2C)ccc1Cc1cn(C)c2ccc(NC(=O)OC3CCCC3)cc12 [ZAFIRLUKAST]
- fold change (FC) (Cytochrome P450 2C9 [10]): 1.4
- fold change (FC) (Cytochrome P450 3A4 [11]): 1.9
- fold change (FC) (Cytochrome P450 2D6 [12]): 1.4

SMILES: CN(C)C/C=C(/c1ccc(Br)cc1)c1cccnc1 [ZIMELDINE]
- fold change (FC) (Cytochrome P450 2D6 [13]): 1.8
- fold change (FC) (Cytochrome P450 3A4 [14]): 2.8
- fold change (FC) (Cytochrome P450 2C9 [15]): 1.1
